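Dose response: 5 concentrations. Exposure: 48 h. Format: 96-well plates. Endpoint: linear interpolation; highest concentration if not reached. GI50 marks 50% less growth. Definition used: TGI = concentration required for complete inhibition of growth.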
Experiments:
Assay in all cases: NCI tumour cell line growth inhibition, 48 h
KM12 colon = test system: KM12 colon
TK-10 renal = test system: TK-10 renal
786-0 renal = test system: 786-0 renal
SNB-19 CNS = test system: SNB-19 CNS
HCT-116 colon = test system: HCT-116 colon
NCI/ADR-RES ovarian = test system: NCI/ADR-RES ovarian
M14 melanoma = test system: M14 melanoma
COLO 205 colon = test system: COLO 205 colon

SMILES	GI50 (KM12 colon)	TGI (KM12 colon)	GI50 (TK-10 renal)	TGI (TK-10 renal)	GI50 (786-0 renal)	TGI (786-0 renal)	GI50 (SNB-19 CNS)	TGI (SNB-19 CNS)	GI50 (HCT-116 colon)	TGI (HCT-116 colon)	GI50 (NCI/ADR-RES ovarian)	TGI (NCI/ADR-RES ovarian)	GI50 (M14 melanoma)	TGI (M14 melanoma)	GI50 (COLO 205 colon)	TGI (COLO 205 colon)
COc1ccc(/C(=N\O)c2cc(C)c(OC)c(C)c2)cc1O	< 0.01 µM	> 100 µM	0.078 µM	> 100 µM	0.0407 µM	> 100 µM	0.0548 µM	> 100 µM	< 0.01 µM	> 100 µM	< 0.01 µM	> 100 µM	< 0.01 µM	> 100 µM		
COc1cc(NC(=O)CSc2nc3ccc(C)cc3c(=O)n2Cc2ccccc2)cc(OC)c1OC	29.9 µM	> 100 µM	5.58 µM	92.3 µM	3.2 µM	14.6 µM	21.4 µM	> 100 µM	3.38 µM	> 100 µM	8.97 µM	> 100 µM	8.38 µM	> 100 µM	> 100 µM	> 100 µM
O=Cc1ccccc1B(O)O		> 100 µM		> 100 µM		> 100 µM		> 100 µM		> 100 µM		> 100 µM		> 100 µM		40.3 µM
NC1=C(c2nc(-c3ccccc3)cs2)C(c2ccc(Br)cc2)c2c(c3ccccc3oc2=O)O1 (stereo not given)	> 150 µg/mL	> 150 µg/mL	> 150 µg/mL	> 150 µg/mL	75.6 µg/mL	> 150 µg/mL	58.3 µg/mL	> 150 µg/mL	79.6 µg/mL	> 150 µg/mL	> 150 µg/mL	> 150 µg/mL	90.1 µg/mL	> 150 µg/mL	78.1 µg/mL	> 150 µg/mL
Oc1ccccc1CNCC12CC3CC(CC(C3)C1)C2	23.7 µM	66 µM	31.2 µM	> 100 µM	16.2 µM	33.5 µM	60.3 µM	> 100 µM	22 µM	> 100 µM	40.4 µM	> 100 µM	15.7 µM	38.3 µM	15.6 µM	31 µM
COc1cccc2c1C(=O)c1c(O)c3c(c(O)c1C2=O)C[C@@](O)(C(=O)CO)C[C@@H]3O[C@H]1C[C@H](N)[C@@H](O)[C@H](C)O1	0.502 µM	18.2 µM		10.5 µM	0.123 µM	1.86 µM	0.127 µM	21.7 µM	0.112 µM	5.17 µM			0.281 µM	1.16 µM	0.313 µM	1.23 µM
Cc1cc2[nH]c(=O)c3c4ccccc4cn3c2cc1C	7.06 µM	21.5 µM	19.7 µM	34.2 µM	10.7 µM	22.7 µM	16.3 µM	36.7 µM	1.58 µM	3.13 µM	13.6 µM	31.7 µM	13.6 µM	26.9 µM	15.2 µM	40 µM
Cc1cc(=O)[nH]c2cc3c(c4c(n3Cc3ccc(Cl)cc3Cl)CC(C)(C)CC4=O)c(O)c12	> 100 µM	> 100 µM	> 100 µM	> 100 µM	0.0145 µM	0.134 µM	55.8 µM	> 100 µM	> 100 µM	> 100 µM	> 100 µM	> 100 µM	71.3 µM	> 100 µM	> 100 µM	> 100 µM

Source: PubChem BioAssay (NCI)
